Data on 27 molecules can be found in patent US10556883B2, “Benzenesulfonamide compounds, method for synthesizing same, and use thereof in medicine and cosmetics” (GALDERMA RESEARCH & DEVELOPMENT, priority 2016, dated 2020).

The IC50 is the point on the concentration scale where inhibition reaches its midpoint. Read a low IC50 as higher potency.

The experiment deals with TNFα secretion from LPS stimulated frozen Peripheral Blood Mononuclear Cells (PBMC). The experiment in a line: inhibition of TNFα secretion from LPS stimulated human PBMC (hPBMC assay). The class given is cell-based. To be noted: LPS 1 μg/mL, overnight incubation, TNFα by HTRF. The protocol: Activity of the compounds was investigated using human peripheral blood mononuclear cells (hPBMC). This assay was designed to measure the inhibition of the TNFα secretion from LPS stimulated frozen Peripheral Blood Mononuclear Cells (PBMC) isolated from human blood. TNFα levels were measured using HTRF® Human TNFα kit (Cisbio #62TNFPEC) which is a rapid and quantitative sandwich immunoassay based on TR-FRET technology.
Frozen PBMC were quickly thawed, resuspended in culture medium (RPMI 10% inactivated FBS) and viable cells were seeded in 96-well plates (50,000 cells/well). […] After overnight incubation at 37° C., 10 μL of cell supernatant were mixed with 5 μL of each tagged anti-TNFα specific antibody as recommended by the supplier. After 2 hours of incubation at room temperature, the HTRF® signals were measured using a microplate reader (wavelengths: excitation=337 nm, first emission=620 nm, second emission=665 nm).
`Cc1cc(COc2ccc(S(=O)(=O)N(C)C3(C(=O)NO)CN(C(=O)C4CCOCC4)C3)cc2)c2ccccc2n1` [Example 19c, N-hydroxy-3-((N-methyl-4-((2-methylquinolin-4-yl)methoxy)phenyl)sulfonamido)-1-(tetrahydro-2H-pyran-4-carbonyl)azetidine-3-carboxamide] showed an IC50 of less than 50 nM.

`Cc1cc(COc2ccc(S(=O)(=O)NC3(CC(=O)NO)CN(C(=O)CC4CCC4)C3)cc2)c2ccccc2n1` [Example 13, 2-(1-(2-cyclobutylacetyl)-3-((4-((2-methylquinolin-4-yl)methoxy)phenyl)sulfonamido)azetidin-3-yl)-N-hydroxyacetamide] showed an IC50 of less than 50 nM.

Molecule `Cc1cc(COc2ccc(S(=O)(=O)NC3(C(=O)NO)CN(C(=O)C4CCOCC4)C3)cc2)c2ccccc2n1` [Example 7d, N-hydroxy-3-((4-((2-methylquinolin-4-yl)methoxy)phenyl)sulfonamido)-1-(tetrahydro-2H-pyran-4-carbonyl)azetidine-3-carboxamide] returned an IC50 of less than 50 nM.

Regarding `COCC(=O)N1CC(CC(=O)NO)(NS(=O)(=O)c2ccc(OCc3cc(C)nc4ccccc34)cc2)C1` [Example 4f, N-hydroxy-2-(1-(2-methoxyacetyl)-3-((4-((2-methylquinolin-4-yl)methoxy)phenyl)sulfonamido)azetidin-3-yl)acetamide], the IC50 was less than 50 nM.

Regarding `CO[C@H]1C[C@H](C(=O)N2CC(NS(=O)(=O)c3ccc(OCc4cc(C)nc5ccccc45)cc3)(C(=O)NO)C2)C1` [Example 26a, N-hydroxy-1-((1r,3r)-3-methoxycyclobutane-1-carbonyl)-3-((4-((2-methylquinolin-4-yl)methoxy)phenyl)sulfonamido)azetidine-3-carboxamide], the IC50 was less than 50 nM.

With `CCN(C1(C(=O)NO)CN(C(=O)C2CCOCC2)C1)S(=O)(=O)c1ccc(OCc2cc(C)nc3ccccc23)cc1` [Example 21b, 3-((N-ethyl-4-((2-methylquinolin-4-yl)methoxy)phenyl)sulfonamido)-N-hydroxy-1-(tetrahydro-2H-pyran-4-carbonyl)azetidine-3-carboxamide], the IC50 is 50 to 100 nM.

For `CCC(CC)C(=O)N1CC(C(=O)NO)(N(C)S(=O)(=O)c2ccc(OCc3cc(C)nc4ccccc34)cc2)C1` [Example 19b, 1-(2-ethylbutanoyl)-N-hydroxy-3-((N-methyl-4-((2-methylquinolin-4-yl)methoxy)phenyl)sulfonamido)azetidine-3-carboxamide], the IC50 lay within 50 to 100 nM.

`C=CCOC(=O)N1CC(NS(=O)(=O)c2ccc(OCc3cc(C)nc4ccccc34)cc2)(C(=O)NO)C1` [Example 17, Allyl 3-(hydroxycarbamoyl)-3-((4-((2-methylquinolin-4-yl)methoxy)phenyl)sulfonamido)azetidine-1-carboxylate] gave an IC50 of less than 50 nM.

Consider `Cc1cc(COc2ccc(S(=O)(=O)NC3(C(=O)NO)CN(C(=O)N4CCCCC4)C3)cc2)c2ccccc2n1` [Example 16a, N-hydroxy-3-((4-((2-methylquinolin-4-yl)methoxy)phenyl)sulfonamido)-1-(piperidine-1-carbonyl)azetidine-3-carboxamide], for which the IC50 fell in the range of 50 to 100 nM.

For `Cc1cc(COc2ccc(S(=O)(=O)N(C)C3(C(=O)NO)CN(C(=O)OC(C)(C)C)C3)cc2)c2ccccc2n1` [Example 20, Tert-butyl 3-(hydroxycarbamoyl)-3-((N-methyl-4-((2-methylquinolin-4-yl)methoxy)phenyl)sulfonamido)azetidine-1-carboxylate], the IC50 is less than 50 nM.

As for `Cc1cc(COc2ccc(S(=O)(=O)NC3(CC(=O)NO)CN(C(=O)CN4CCCCC4)C3)cc2)c2ccccc2n1` [Example 12, N-hydroxy-2-(3-((4-((2-methylquinolin-4-yl)methoxy)phenyl)sulfonamido)-1-(2-(piperidin-1-yl)acetyl)azetidin-3-yl)acetamide], the IC50 was less than 50 nM.

For the molecule `Cc1cc(COc2ccc(S(=O)(=O)NC3(C(=O)NO)CN(C(=O)C4CC(F)(F)C4)C3)cc2)c2ccccc2n1` [Example 26e, 1-(3,3-difluorocyclobutane-1-carbonyl)-N-hydroxy-3-((4-((2-methylquinolin-4-yl)methoxy)phenyl)sulfonamido)azetidine-3-carboxamide], the IC50 is less than 50 nM.

`Cc1cc(COc2ccc(S(=O)(=O)NC3(CC(=O)NO)CN(C(=O)C4CCCCC4)C3)cc2)c2ccccc2n1` [Example 4j, 2-(1-(cyclohexanecarbonyl)-3-((4-((2-methylquinolin-4-yl)methoxy)phenyl)sulfonamido)azetidin-3-yl)-N-hydroxyacetamide] registered an IC50 of less than 50 nM.

`Cc1cc(COc2ccc(S(=O)(=O)NC3(CC(=O)NO)CN(C(=O)N4CCCCC4)C3)cc2)c2ccccc2n1` [Example 9, N-hydroxy-2-(3-((4-((2-methylquinolin-4-yl)methoxy)phenyl)sulfonamido)-1-(piperidine-1-carbonyl)azetidin-3-yl)acetamide] yielded an IC50 of less than 50 nM.

With `Cc1cc(COc2ccc(S(=O)(=O)NC3(CC(=O)NO)CN(C(=O)N4CCN(C)CC4)C3)cc2)c2cccc(C)c2n1` [Example 31, 2-(3-((4-((2,8-dimethylquinolin-4-yl)methoxy)phenyl)sulfonamido)-1-(4-methylpiperazine-1-carbonyl)azetidin-3-yl)-N-hydroxyacetamide], the IC50 fell in the range of 50 to 100 nM.

`Cc1cc(COc2ccc(S(=O)(=O)NC3(CC(=O)NO)CN(C(=O)N4CCN(C(C)C)CC4)C3)cc2)c2ccccc2n1` [Example 28a, N-hydroxy-2-(1-(4-isopropylpiperazine-1-carbonyl)-3-((4-((2-methylquinolin-4-yl)methoxy)phenyl)sulfonamido)azetidin-3-yl)acetamide] registered an IC50 of less than 50 nM.

`CO[C@H]1C[C@@H](C(=O)N2CC(NS(=O)(=O)c3ccc(OCc4cc(C)nc5ccccc45)cc3)(C(=O)NO)C2)C1` [Example 26b, N-hydroxy-1-((1s,3s)-3-methoxycyclobutane-1-carbonyl)-3-((4-((2-methylquinolin-4-yl)methoxy)phenyl)sulfonamido)azetidine-3-carboxamide] had a half-maximal inhibitory concentration (IC50) of less than 50 nM.

Consider `Cc1cc(COc2ccc(S(=O)(=O)NC3(C(=O)NO)CN(C(=O)CC(C)C)C3)cc2)c2cccc(F)c2n1` [Example 29, 3-((4-((8-fluoro-2-methylquinolin-4-yl)methoxy)phenyl)sulfonamido)-N-hydroxy-1-(3-methylbutanoyl)azetidine-3-carboxamide], for which the IC50 lay in the range of 100 to 500 nM.

For `Cc1cc(COc2ccc(S(=O)(=O)NC3(CC(=O)NO)CN(C(=O)C4CCOCC4)C3)cc2)c2ccccc2n1` [Example 4g, N-hydroxy-2-(3-((4-((2-methylquinolin-4-yl)methoxy)phenyl)sulfonamido)-1-(tetrahydro-2H-pyran-4-carbonyl)azetidin-3-yl)acetamide], the IC50 was less than 50 nM.

For `Cc1cc(COc2ccc(S(=O)(=O)NC3(CC(=O)NO)CN(C(=O)C4CC4)C3)cc2)c2ccccc2n1` [Example 4c, 2-(1-(cyclopropanecarbonyl)-3-((4-((2-methylquinolin-4-yl)methoxy)phenyl)sulfonamido)azetidin-3-yl)-N-hydroxyacetamide], the IC50 was less than 50 nM.

The molecule `CCCC(=O)N1CC(CC(=O)NO)(NS(=O)(=O)c2ccc(OCc3cc(C)nc4ccccc34)cc2)C1` [Example 4e, 2-(1-butyryl-3-((4-((2-methylquinolin-4-yl)methoxy)phenyl)sulfonamido)azetidin-3-yl)-N-hydroxyacetamide] registered a half-inhibitory concentration (IC50) of less than 50 nM.

In the case of `Cc1cc(COc2ccc(S(=O)(=O)NC3(CC(=O)NO)CN(C(=O)OC(C)C)C3)cc2)c2ccccc2n1` [Example 5d, isopropyl 3-(2-(hydroxyamino)-2-oxoethyl)-3-((4-((2-methylquinolin-4-yl)methoxy)phenyl)sulfonamido)azetidine-1-carboxylate], the 50% inhibitory concentration (IC50) is less than 50 nM.

Molecule `Cc1cc(COc2ccc(S(=O)(=O)NC3(C(=O)NO)CN(C(=O)CC(C)C)C3)cc2)c2ccccc2n1` [Example 7c, N-hydroxy-1-(3-methylbutanoyl)-3-((4-((2-methylquinolin-4-yl)methoxy)phenyl)sulfonamido)azetidine-3-carboxamide] gave an IC50 of less than 50 nM.

Molecule `Cc1cc(COc2ccc(S(=O)(=O)N(C)C3(C(=O)NO)CN(C(=O)C(C)C)C3)cc2)c2cccc(F)c2n1` [Example 30, 3-((4-((8-fluoro-2-methylquinolin-4-yl)methoxy)-N-methylphenyl)sulfonamido)-N-hydroxy-1-isobutyrylazetidine-3-carboxamide] came in with a 50% inhibitory concentration (IC50) of less than 50 nM.

Regarding `Cc1cc(COc2ccc(S(=O)(=O)NC3(CC(=O)NO)CN(C(=O)C(C)(C)C)C3)cc2)c2ccccc2n1` [Example 4d, N-hydroxy-2-(3-((4-((2-methylquinolin-4-yl)methoxy)phenyl)sulfonamido)-1-pivaloylazetidin-3-yl)acetamide], the IC50 is less than 50 nM.

Molecule `Cc1cc(COc2ccc(S(=O)(=O)NC3(CC(=O)NO)CN(C(=O)C(C)C)C3)cc2)c2ccccc2n1` [Example 4b, N-hydroxy-2-(1-isobutyryl-3-((4-((2-methylquinolin-4-yl)methoxy)phenyl)sulfonamido)azetidin-3-yl)acetamide] had an IC50 of less than 50 nM.

For `CCN(C1(C(=O)NO)CN(C(=O)C(C)C)C1)S(=O)(=O)c1ccc(OCc2cc(C)nc3ccccc23)cc1` [Example 21a, 3-((N-ethyl-4-((2-methylquinolin-4-yl)methoxy)phenyl)sulfonamido)-N-hydroxy-1-isobutyrylazetidine-3-carboxamide], the IC50 is less than 50 nM.
